Measured values reported in patent US11878965B2, “Inhibitors of peptidylarginine deiminases” (Gilead Sciences, Inc., priority 2020, dated 2024).

What follows are compounds tested against human PAD4 (Homo sapiens (Human), UniProt Q9UM07) (assay: In Vitro PAD4 BAEE Biochemical Assay). Settings: human PAD4, BAEE substrate; 5 nM PAD4, 2 mM calcium chloride, 3 mM BAEE; geometric mean of multiple experiments.
Summary of the method: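 Deimination of BAEE substrate (3 mM) measured as ammonia via o-phthalaldehyde–DTT isoindole fluorescence, 405/535 nm. Tag-free bacterially expressed human PAD4 at 5 nM with 2 mM calcium chloride, pH 7.6 MOPS buffer, 30 min compound preincubation then 2 h reaction, both at 25 °C.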

Chain of human PAD4 (Q9UM07 2-663): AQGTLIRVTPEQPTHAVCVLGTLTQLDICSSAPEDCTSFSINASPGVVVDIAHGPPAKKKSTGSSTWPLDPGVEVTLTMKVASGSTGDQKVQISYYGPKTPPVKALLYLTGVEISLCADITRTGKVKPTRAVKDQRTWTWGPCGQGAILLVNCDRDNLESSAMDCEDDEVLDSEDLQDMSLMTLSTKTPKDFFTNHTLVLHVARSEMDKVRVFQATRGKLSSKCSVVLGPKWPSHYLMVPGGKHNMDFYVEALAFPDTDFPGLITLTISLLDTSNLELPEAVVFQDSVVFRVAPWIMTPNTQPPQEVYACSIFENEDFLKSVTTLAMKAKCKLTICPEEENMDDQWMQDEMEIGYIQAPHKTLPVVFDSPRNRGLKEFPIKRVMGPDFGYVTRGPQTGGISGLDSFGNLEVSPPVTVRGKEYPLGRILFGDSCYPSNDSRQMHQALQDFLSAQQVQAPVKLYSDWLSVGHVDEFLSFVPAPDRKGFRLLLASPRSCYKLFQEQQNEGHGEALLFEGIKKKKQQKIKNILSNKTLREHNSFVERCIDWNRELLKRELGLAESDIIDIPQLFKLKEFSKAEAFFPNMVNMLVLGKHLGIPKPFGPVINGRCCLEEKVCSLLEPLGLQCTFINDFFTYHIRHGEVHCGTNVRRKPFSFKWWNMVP

How did the IC50 turn out when `COc1cc(C(=O)N2[C@H]3CC[C@@H]2[C@H](N)C3)cc2nc(-c3cc4ccc(N(C)S(C)(=O)=O)nc4n3CC3CC3)n(C)c12` [Example 79, N-(2-(5-((1R,2R,4S)-2-amino-7-azabicyclo[2.2.1]heptane-7-carbonyl)-7-methoxy-1-methyl-1H-benzo[d]imidazol-2-yl)-1-(cyclopropylmethyl)-1H-pyrrolo[2,3-b]pyridin-6-yl)-N-methyl-methanesulfonamide] was run?
The IC50 was 0.0336 µM.

`C=CC(=O)N[C@@H]1CNC[C@H]1NC(=O)c1cc(OC)c2c(c1)nc(-c1cc3ccc(N(C(F)F)S(C)(=O)=O)nc3n1CC1CC1)n2C` [Example 80, N-((3R,4R)-4-acrylamidopyrrolidin-3-yl)-2-(1-(cyclopropylmethyl)-6-((N-(difluoromethyl)methyl)sulfonamido)-1H-pyrrolo[2,3-b]pyridin-2-yl)-7-methoxy-1-methyl-1H-benzo[d] imidazole-5-carboxamide] was tested. Which IC50 did it give?
The IC50 was 0.24 µM.

`C#CC(=O)N[C@@H]1CNC[C@H]1NC(=O)c1cc(OC)c2c(c1)nc(-c1cc3ccc(N(C(F)F)S(C)(=O)=O)nc3n1CC1CC1)n2C` [Example 81, 2-(1-(cyclopropylmethyl)-6-((N-(difluoromethyl)methyl)sulfonamido)-1H-pyrrolo[2,3-b]pyridin-2-yl)-7-methoxy-1-methyl-N-((3R,4R)-4-propiolamidopyrrolidin-3-yl)-1H-benzo[d]imidazole-5-carboxamide] was tested. Which IC50 did it give?
Its IC50 is 4.63 µM.

How did the IC50 turn out when `COc1cc(C(=O)N2C[C@@H]3C[C@@H](N)[C@H]2C3)cc2nc(-c3cc4ccc(N(C(F)F)S(C)(=O)=O)nc4n3CC3CC3)n(C)c12` [Example 82, N-(2-(5-((1R,4R,6R)-6-amino-2-azabicyclo[2.2.1]heptane-2-carbonyl)-7-methoxy-1-methyl-1H-benzo[d]imidazol-2-yl)-1-(cyclopropylmethyl)-1H-pyrrolo[2,3-b]pyridin-6-yl)-N-(difluoromethyl) methanesulfonamide] was run?
Its IC50 is 47.6 µM.

`COc1cc(C(=O)N[C@@H]2CNC[C@H]2NC(=O)CCCN(C)C)cc2nc(-c3cc4ccc(N(C(F)F)S(C)(=O)=O)nc4n3CC3CC3)n(C)c12` [Example 83, 2-(1-(cyclopropylmethyl)-6-((N-(difluoromethyl)methyl)sulfonamido)-1H-pyrrolo[2,3-b]pyridin-2-yl)-N-((3R,4R)-4-(4-(dimethylamino)butanamido)pyrrolidin-3-yl)-7-methoxy-1-methyl-1H-benzo[d]imidazole-5-carboxamide] was tested. Which IC50 did it give?
Its IC50 is 50 µM.

`COc1cc(C(=O)N2[C@H]3CC[C@@H]2[C@H](N)C3)cc2nc(-c3cc4ccc(N(C(C)C)S(C)(=O)=O)nc4n3CC3CC3)n(C)c12` [Example 84, N-(2-(5-((1R,2R,4S)-2-amino-7-azabicyclo[2.2.1]heptane-7-carbonyl)-7-methoxy-1-methyl-1H-benzo[d]imidazol-2-yl)-1-(cyclopropylmethyl)-1H-pyrrolo[2,3-b]pyridin-6-yl)-N-isopropylmethanesulfonamide] was tested. Which IC50 did it give?
Its IC50 is 0.0583 µM.

Which IC50 does the source give for `COc1cc(C(=O)N2[C@@H]3CC[C@@H](N)[C@H]2CC3)cc2nc(-c3cc4ccc(N(C(C)C)S(C)(=O)=O)nc4n3CC3CC3)n(C)c12` [Example 85, N-(2-(5-((1R,2R,5R)-2-amino-8-azabicyclo[3.2.1]octane-8-carbonyl)-7-methoxy-1-methyl-1H-benzo[d]imidazol-2-yl)-1-(cyclopropylmethyl)-1H-pyrrolo [2,3-b]pyridin-6-yl)-N-isopropyl-methanesulfonamide] here?
The IC50 was 0.0698 µM.

How did the IC50 turn out when `COc1cc(C(=O)N[C@H]2CCNC2)cc2nc(-c3cc4ccc(N(C(F)F)S(C)(=O)=O)nc4n3CC3CC3)n(C)c12` [Example 88, (S)-2-(1-(cyclopropylmethyl)-6-((N-(difluoromethyl)methyl)sulfonamido)-1H-pyrrolo[2,3-b]pyridin-2-yl)-7-methoxy-1-methyl-N-(pyrrolidin-3-yl)-1H-benzo[d]imidazole-5-carboxamide] was run?
Its IC50 is 50 µM.
